Measured values from patent US20240075093A1, “COMPOSITIONS AND METHODS OF TREATING A PI3K MEDIATED DISEASE” (VIRGINIA TECH INTELLECTUAL PROPERTIES, INC., priority 2020, published 2024).

What was measured:
p110δ = p110δ (Homo sapiens, UniProt O00329); assay: PI3K subunit activity ELISA; assay type: biochemical; settings: 100 nM
Method: (§1) Relative activity is the ratio of respective treated groups to their non-treated controls.
(§2) Applicant also included a control scramble peptide containing the antennapedia sequence followed by the amino acid sequence of Ante-Selectide-18 randomly scrambled. […] Applicant reports that this drug is not effective at inhibiting the kinase activity of p110b or other PI3K subunits at 100 nM, showing the promise of the Ante-Selectide-18 peptide as a potent selective p110b inhibitor at a low dose.

p110c = p110c (Homo sapiens, UniProt P42336); assay: PI3K subunit activity ELISA; assay type: biochemical; settings: 100 nM
Method: as §1, §2

p110γ = p110γ (Homo sapiens, UniProt P48736); assay: PI3K subunit activity ELISA; assay type: biochemical; settings: 100 nM
Method: as §1, §2

LN229/GSCs = assay: wound-healing (migration) assay; assay type: cell-based; settings: 8 μM, 24 hours
Method: (§3) (FIG. 8A) Wound-healing assay. Cells were plated confluently and then treated with PI3K isoform-selective inhibitors at 8 μM for 24 hours. Cells were imaged at 0- and 24-hour time point. Images of 24-hour time point are shown. Scale bar: […]. (FIG. 8B-8D) Quantification of migration distance. Images from three different areas were analyzed using Image J. Migration distances were obtained by subtracting 24-hour measurements with those of 0-hour.

SF295 cells = assay: wound-healing (migration) assay; assay type: cell-based; settings: 8 μM, 24 hours
Method: as §3

tumor growth in mice = assay: GBM tumor growth in mice; assay type: in vivo
[1] = system: PI3K/AKT signaling in SF295 cells; assay: immunoblotting of PI3K/AKT signaling in SF295 cells; assay type: cell-based
U87MG cells = assay: MTS cell viability assay; assay type: cell-based, human; settings: 20 uM TGX-221 and 50 uM TMZ, 4 days, MTS
Method: (§4) Cell viability was measured by the MTS assay. P values were determined using the student t test or one-way ANOVA. Error bars represent three independent experiments.
Cell viability was determined using the MTS viability assay. The vehicle DMSO was the control and set as 100%. Treated cells were normalized to DMSO-treated cells. […] (FIG. 43D) Scores of Excess Over Bliss in FIG. 43C calculated using the Bliss Independence model. One-way ANOVA and student t test were used to determine statistical significance.
(§5) Cell viability was determined by the MTS cell viability assay (Promega) as described previously 21,24-27. In brief, 250 to 1,000 cells were plated in the wells of a 96-well plate-based upon the cell growth rate. Because the drug treatment usually takes 6-7 days, fast-growing cells could be over-grown if plated at a high cell density. For αCT1 treatment experiments, Applicant intended to plate cells at a low density to minimize the formation of gap junctions, and thus, more Cx43-hemichannels can be present. […] At each hour time point, the absorbance at 490 nm was measured using a FilterMax F3 microplate reader (Molecular Devices, LLC) according to the manufacturer's instructions. Percent cell viability was obtained by dividing the absorbance of treatment groups to those of untreated and respective vehicle control groups.

astrocytes = assay: MTS cell viability assay; assay type: cell-based, human; settings: 20 uM TGX-221 and 50 uM TMZ, 4 days
Method: as §4
(FIG. 46A) The effect of the αCT1/GSK/TMZ combo in VTC-103 cells. […] (FIG. 46B) The effect of the αCT1/GSK/TMZ combo in LN229 cells. (FIG. 46C) EOB scores of drug combinations in VTC-103 and LN229 cells. […] (FIG. 46E) EOB scores of drug combinations in astrocytes. One-way ANOVA with Dunnett test for correction of multiple comparisons or Student's t test was used to determine statistical significance. *: P<0.05; ns: not significant. Drug combinations with strong synergistic effect were marked in red.
as §5, with “density.” for “density. For αCT1 treatment experiments, Applicant intended to plate cells at a low density to minimize the formation of gap junctions, and thus, more Cx43-hemichannels can be present.”

p110b = p110b (Homo sapiens, UniProt P42338); assay: p110b activity ELISA (cell-free kinase assay); assay type: biochemical
Source text: The activity of the p110b PI3K catalytic subunit was monitored via ELISA upon increasing doses of Ante-Selectide-18.
as §1
(FIG. 51A) 3D of a p110β/p85α complex determined by SWISS-MODEL and Cluspro. (FIG. 51B) Protein sequences were aligned using COBALT. C2 domains (top) are show. Red bars: same residues; Grey bars: different residues; Red lines: missing residues. […] in p110β C2 (bottom) is shown and termed as 018. Docking of p110β and p85α (FIG. 51C) or p110α and p85α (FIG. 51D) was done by SWISS-MODEL, Cluspro, and Chimera. The 018 motif is labeled in magenta. Deletion of β18 motif (FIG. 51E) changed the 3D shapes of p110β/p85 (FIG. 51C). (FIG. 51F) p110β cell-free kinase assay. An enzyme-linked immunosorbent assay (ELISA) was used to measure levels of lipids PIP2/PIP3. (FIG. 51G) Effect of PI3K inhibitors on p110s using ELISA. p110β (FIG. 51H) or p110α (FIG. 51I) was docked with Selectide-18-bound p85α using Cluspro/Chimera.
as §2

p110b, sequence (P42338 whole entry): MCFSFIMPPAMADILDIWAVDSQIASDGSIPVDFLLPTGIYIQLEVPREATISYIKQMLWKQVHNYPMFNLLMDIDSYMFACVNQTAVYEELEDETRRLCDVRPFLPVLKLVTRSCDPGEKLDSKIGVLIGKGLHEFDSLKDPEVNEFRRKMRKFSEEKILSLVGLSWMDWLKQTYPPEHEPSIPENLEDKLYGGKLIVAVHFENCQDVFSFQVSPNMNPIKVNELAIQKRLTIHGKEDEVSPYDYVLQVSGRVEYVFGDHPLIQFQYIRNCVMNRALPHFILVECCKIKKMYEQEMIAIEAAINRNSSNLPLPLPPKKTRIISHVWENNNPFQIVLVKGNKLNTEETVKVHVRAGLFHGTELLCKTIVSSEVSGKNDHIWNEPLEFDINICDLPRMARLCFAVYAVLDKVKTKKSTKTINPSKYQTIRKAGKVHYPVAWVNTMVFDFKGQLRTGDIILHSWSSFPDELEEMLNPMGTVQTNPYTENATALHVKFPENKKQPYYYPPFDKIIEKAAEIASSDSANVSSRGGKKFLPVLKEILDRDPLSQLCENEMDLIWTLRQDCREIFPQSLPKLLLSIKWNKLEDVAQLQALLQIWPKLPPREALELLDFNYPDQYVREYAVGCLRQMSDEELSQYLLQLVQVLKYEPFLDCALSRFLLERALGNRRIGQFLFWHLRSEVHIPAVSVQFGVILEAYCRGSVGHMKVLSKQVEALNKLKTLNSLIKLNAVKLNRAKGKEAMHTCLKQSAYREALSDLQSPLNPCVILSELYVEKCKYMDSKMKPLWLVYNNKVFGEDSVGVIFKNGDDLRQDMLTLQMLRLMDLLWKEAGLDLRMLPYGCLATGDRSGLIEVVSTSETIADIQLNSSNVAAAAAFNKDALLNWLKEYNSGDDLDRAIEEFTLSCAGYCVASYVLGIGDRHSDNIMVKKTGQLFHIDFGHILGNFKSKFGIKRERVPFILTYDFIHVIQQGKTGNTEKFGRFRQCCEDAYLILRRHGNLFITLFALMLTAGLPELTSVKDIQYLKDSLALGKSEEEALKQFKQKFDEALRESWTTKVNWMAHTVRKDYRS
p110δ, sequence (O00329 whole entry): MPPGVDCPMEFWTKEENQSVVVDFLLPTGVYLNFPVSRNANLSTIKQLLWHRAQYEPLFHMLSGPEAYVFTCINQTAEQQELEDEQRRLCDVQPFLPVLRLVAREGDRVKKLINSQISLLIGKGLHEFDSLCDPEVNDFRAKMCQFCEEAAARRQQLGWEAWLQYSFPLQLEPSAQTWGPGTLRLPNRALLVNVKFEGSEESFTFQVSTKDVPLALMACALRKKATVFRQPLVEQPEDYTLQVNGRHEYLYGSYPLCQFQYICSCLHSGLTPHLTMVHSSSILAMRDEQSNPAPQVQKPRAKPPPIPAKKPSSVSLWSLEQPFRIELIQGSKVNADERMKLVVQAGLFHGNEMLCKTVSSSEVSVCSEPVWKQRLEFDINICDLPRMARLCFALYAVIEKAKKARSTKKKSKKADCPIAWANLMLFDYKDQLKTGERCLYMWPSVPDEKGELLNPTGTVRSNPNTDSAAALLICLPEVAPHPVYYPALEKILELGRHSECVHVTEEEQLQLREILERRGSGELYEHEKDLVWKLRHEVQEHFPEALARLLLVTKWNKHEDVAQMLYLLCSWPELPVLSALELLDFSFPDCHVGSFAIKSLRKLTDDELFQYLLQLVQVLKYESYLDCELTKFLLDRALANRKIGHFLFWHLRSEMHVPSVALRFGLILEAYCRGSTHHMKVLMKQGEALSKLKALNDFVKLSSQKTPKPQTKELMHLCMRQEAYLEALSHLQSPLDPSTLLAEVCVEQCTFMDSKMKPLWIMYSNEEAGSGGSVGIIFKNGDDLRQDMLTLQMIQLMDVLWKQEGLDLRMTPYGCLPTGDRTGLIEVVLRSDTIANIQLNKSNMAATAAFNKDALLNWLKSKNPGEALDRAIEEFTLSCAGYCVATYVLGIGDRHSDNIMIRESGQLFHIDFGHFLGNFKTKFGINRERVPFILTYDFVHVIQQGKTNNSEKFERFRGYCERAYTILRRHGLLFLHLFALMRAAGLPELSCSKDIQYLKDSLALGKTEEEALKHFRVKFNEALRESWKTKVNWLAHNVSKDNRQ
p110δ, sequence (P27986 whole entry partner): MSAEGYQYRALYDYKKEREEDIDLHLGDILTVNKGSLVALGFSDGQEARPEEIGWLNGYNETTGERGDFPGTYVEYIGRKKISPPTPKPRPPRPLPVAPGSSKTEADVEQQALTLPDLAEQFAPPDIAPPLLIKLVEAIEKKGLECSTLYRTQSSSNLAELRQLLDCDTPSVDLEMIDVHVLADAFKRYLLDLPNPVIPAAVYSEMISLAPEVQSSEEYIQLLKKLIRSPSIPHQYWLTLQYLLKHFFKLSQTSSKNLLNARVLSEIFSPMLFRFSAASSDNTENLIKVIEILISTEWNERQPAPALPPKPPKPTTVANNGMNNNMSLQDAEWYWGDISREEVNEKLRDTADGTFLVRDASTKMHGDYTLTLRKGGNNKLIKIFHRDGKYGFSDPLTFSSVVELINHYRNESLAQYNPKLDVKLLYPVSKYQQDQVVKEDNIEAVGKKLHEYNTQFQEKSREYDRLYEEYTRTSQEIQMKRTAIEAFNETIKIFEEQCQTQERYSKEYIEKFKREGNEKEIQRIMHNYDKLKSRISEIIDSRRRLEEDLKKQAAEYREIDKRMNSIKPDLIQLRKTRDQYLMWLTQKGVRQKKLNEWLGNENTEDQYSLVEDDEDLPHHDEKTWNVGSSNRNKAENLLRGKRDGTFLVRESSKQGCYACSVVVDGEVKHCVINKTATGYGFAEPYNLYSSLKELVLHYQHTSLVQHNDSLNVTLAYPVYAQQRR
p110c, sequence (P42336 whole entry): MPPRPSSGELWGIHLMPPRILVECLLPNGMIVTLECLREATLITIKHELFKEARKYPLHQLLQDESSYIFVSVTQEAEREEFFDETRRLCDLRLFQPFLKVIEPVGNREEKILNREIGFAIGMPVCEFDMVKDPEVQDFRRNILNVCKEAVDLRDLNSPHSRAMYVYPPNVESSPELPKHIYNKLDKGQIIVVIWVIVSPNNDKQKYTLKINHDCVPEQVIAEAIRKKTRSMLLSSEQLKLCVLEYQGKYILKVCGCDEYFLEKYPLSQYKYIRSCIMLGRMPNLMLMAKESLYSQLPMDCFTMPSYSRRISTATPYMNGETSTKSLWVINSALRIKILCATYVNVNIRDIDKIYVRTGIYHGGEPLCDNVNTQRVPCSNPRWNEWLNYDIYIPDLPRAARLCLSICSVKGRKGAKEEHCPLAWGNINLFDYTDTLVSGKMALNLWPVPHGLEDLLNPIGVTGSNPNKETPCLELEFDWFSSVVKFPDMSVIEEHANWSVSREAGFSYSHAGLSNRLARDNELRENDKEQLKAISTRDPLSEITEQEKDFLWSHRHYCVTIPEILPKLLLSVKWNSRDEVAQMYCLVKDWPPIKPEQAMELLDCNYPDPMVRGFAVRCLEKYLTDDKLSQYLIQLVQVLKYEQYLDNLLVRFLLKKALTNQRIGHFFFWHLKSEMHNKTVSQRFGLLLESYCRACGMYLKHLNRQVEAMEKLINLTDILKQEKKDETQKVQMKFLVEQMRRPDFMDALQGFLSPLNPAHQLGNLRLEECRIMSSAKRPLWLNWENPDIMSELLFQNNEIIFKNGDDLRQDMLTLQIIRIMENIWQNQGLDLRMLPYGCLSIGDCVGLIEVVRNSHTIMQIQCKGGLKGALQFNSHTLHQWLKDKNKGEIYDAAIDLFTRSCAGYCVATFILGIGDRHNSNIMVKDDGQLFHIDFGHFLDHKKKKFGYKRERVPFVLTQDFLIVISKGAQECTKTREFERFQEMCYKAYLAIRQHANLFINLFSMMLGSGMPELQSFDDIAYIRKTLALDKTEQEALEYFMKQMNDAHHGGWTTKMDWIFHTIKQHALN
p110γ, sequence (P48736 whole entry): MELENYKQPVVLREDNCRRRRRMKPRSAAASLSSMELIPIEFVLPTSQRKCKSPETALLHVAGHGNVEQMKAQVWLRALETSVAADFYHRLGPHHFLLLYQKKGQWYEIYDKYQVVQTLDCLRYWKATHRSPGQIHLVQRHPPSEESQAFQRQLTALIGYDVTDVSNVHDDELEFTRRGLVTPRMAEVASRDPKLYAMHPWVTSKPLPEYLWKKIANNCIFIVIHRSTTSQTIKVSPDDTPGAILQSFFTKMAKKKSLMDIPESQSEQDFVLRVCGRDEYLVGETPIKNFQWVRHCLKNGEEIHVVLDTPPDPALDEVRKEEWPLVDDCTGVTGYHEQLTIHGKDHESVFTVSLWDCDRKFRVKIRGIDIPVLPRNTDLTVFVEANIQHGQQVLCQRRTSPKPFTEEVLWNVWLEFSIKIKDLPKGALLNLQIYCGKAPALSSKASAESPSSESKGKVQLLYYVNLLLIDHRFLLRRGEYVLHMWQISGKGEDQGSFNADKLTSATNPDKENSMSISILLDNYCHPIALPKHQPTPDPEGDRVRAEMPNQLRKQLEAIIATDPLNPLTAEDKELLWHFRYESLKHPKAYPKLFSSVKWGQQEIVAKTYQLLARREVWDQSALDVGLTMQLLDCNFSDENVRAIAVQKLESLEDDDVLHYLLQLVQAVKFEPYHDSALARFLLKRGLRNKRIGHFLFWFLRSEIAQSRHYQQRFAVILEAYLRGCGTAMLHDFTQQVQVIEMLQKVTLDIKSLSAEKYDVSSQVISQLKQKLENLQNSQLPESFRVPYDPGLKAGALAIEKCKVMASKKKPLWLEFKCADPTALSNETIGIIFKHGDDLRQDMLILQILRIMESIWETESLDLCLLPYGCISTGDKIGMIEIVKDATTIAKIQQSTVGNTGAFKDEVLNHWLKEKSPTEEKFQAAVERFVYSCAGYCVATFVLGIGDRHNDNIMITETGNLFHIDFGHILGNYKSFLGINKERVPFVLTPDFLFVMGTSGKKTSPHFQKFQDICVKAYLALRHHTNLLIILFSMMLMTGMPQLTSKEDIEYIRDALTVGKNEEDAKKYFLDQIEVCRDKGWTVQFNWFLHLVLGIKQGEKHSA

SMILES: Cc1cc(C(C)Nc2ccccc2)c2nc(N3CCOCC3)cc(=O)n2c1 (stereo not shown) [TGX-221]
- activity of PI3K subunit p110δ (p110δ): not effective
- activity of PI3K subunit p110c (p110c): not effective
- activity of PI3K subunit p110γ (p110γ): not effective
- cell migration (LN229/GSCs): inhibited the migration
- cell migration (SF295 cells): inhibited the migration
- tumor growth in mice (tumor growth in mice): slow down tumor growth
- AKT and RAC1/CDC42 activity ([1]; 8 μM TGX-221, 24 hours): inactivated
- protein levels of MMP2 ([1]; 8 μM TGX-221, 24 hours): not
- protein levels of MMP9 ([1]; 8 μM TGX-221, 24 hours): decreased protein levels
- BIM-EL, BIM-L, BIM-S (apoptotic forms of BIM) ([1]; 25 μM TGX-221, 96 hours): remarkable increase
- cleaved caspase 3 (c-CASP3) ([1]; 25 μM TGX-221, 96 hours): remarkable increase
- levels of pFOXO3T32 ([1]; 25 μM TGX-221, 96 hours): significantly decreased
- TMZ sensitivity (U87MG cells): increased TMZ sensitivity
- effect of TGX-221 plus TMZ combination on astrocytes (astrocytes): did not harm astrocytes
- activity of p110β (p110b; 10 nM TGX-221, ELISA): didn't inactivate p110β
- activity of p110b (p110b; 100 nM, ELISA, isolated protein subunit): not effective
